Read-outs that look alike come from different tables or passages of the source. Bounds are passed on as bounds.

The test has as its target T1, Recombinant human Src (Homo sapiens, UniProt P12931).
T1 construct: made in house; host or cells: baculovirus-insect cell system
Put plainly: Src tyrosine kinase activity, poly E4Y and 32P-ATP. In kind it is biochemical. The procedure:
Recombinant human Src was expressed using the baculovirus-insect cell system and purified as published (Budde et al., 1993 and 2000). Recombinant Csk and the FGF receptor (FGFr) were expressed as glutathione-S-transferase fusion proteins using the pGEX expression vector and E. coli, and purified as described (Sun & Budde, 1995).
The tyrosine kinase activity of Src, Csk and FGFr was determined using poly E4Y and ^32P-ATP. Briefly, enzymes were assayed in a reaction mixture consisting of 0.15 M EPPS-NaOH (pH 8.0) with 6 mM MgCl2, 0.2 mM γ^32P-ATP (0.2-0.4 mCi/μmol), 10% glycerol, 0.1% Triton X-100, and poly E4Y. Poly E4Y is a synthetic peptide whose phosphorylation is measured in this assay by the addition of the radioactively labeled phosphate from the ATP (Budde et al., 1995). […] When ATP was varied (0, 50, 100 and 250 μM), poly E4Y was kept constant at 150 μg/ml.

Setting [1] is: Table 2, read-out: Src IC50 (especially good inhibitors of Src).
The mark [2] stands for this setting: read-out: IC50 (preferred compounds for treatment of Src family-related disease).

T1 sequence (P12931 whole entry): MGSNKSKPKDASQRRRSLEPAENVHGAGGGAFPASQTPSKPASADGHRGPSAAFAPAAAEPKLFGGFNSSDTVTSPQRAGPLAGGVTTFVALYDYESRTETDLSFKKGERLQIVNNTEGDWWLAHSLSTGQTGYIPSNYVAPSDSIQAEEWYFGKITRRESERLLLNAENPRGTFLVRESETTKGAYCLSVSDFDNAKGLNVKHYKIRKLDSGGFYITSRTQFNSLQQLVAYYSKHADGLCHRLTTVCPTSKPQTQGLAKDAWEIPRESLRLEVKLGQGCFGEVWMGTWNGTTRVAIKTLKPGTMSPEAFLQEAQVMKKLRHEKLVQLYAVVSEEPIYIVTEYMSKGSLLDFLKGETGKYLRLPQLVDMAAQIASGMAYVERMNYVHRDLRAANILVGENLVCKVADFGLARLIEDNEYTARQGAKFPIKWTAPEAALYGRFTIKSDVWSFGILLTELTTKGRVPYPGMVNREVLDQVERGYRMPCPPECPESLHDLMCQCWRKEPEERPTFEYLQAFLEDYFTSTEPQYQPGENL

By IC50 is commonly meant the midpoint of a concentration-inhibition curve. As for `Cc1c(-c2ccc(C(=O)O)cc2)sc2c(NN=Cc3cccnc3)ncnc12` [Compound 453, 3-Pyridinecarboxaldehyde(6-(4-carboxyphenyl)-7-methylthieno[3,2-d]pyrimidin-4-yl)hydrazone], the IC50 was not above 2000 nM under setting [1] and less than 2000 nM under setting [2].

Consider `Cc1c(-c2ccc(C(=O)O)cc2)sc2c(NN=Cc3cccs3)ncnc12` [Compound 455, 2-Thiophenecarboxaldehyde(6-(4-carboxyphenyl)-7-methylthieno[3,2-d]pyrimidin-4-yl)hydrazone], for which the IC50 is, setting by setting: under setting [1], not above 2000 nM; under setting [2], less than 2000 nM.

`COc1ccc(C=NNc2ncnc3c(C)c(-c4ccc(C(=O)O)cc4)sc23)cc1O` [Compound 456, 3-Hydroxy-4-methoxybenzaldehyde(6-(4-carboxyphenyl)-7-methylthieno[3,2-d]pyrimidin-4-yl)hydrazone]: the IC50 reads like this: under setting [1], not above 2000 nM; under setting [2], less than 2000 nM.

Consider `Cc1c(C(O)c2ccccc2)sc2c(NN=Cc3cccnc3)ncnc12` (centres unmarked) [Compound 457, 3-Pyridinecarboxaldehyde(6-(1-hydroxy-1-phenyl)methyl-7-methylthieno[3,2-d]pyrimidin-4-yl)hydrazone], for which the IC50 by setting is: under setting [1], not above 2000 nM; under setting [2], less than 2000 nM.

Consider `Cc1c(C(O)c2ccccc2)sc2c(NN=Cc3ccc(C(=O)O)cc3)ncnc12` (centres unmarked) [Compound 458, 4-Carboxybenzaldehyde(6-(1-hydroxy-1-phenyl)methyl-7-methylthieno[3,2-d]pyrimidin-4-yl)hydrazone], for which the IC50 was not above 2000 nM under setting [1] and less than 2000 nM under setting [2].

For `Cc1c(C(O)c2ccccc2)sc2c(NN=Cc3cccs3)ncnc12` (centres unmarked) [Compound 459, 2-Thiophenecarboxaldehyde(6-(1-hydroxy-1-phenyl)methyl-7-methylthieno[3,2-d]pyrimidin-4-yl)hydrazone], the IC50 reads like this: under setting [1], not above 2000 nM; under setting [2], less than 2000 nM.

Regarding `COc1ccc(C=NNc2ncnc3c(C)c(C(O)c4ccccc4)sc23)cc1O` (centres unmarked) [Compound 460, 3-Hydroxy-4-methoxybenzaldehyde(6-(1-hydroxy-1-phenyl)methyl-7-methylthieno[3,2-d]pyrimidin-4-yl)hydrazone], the IC50 under setting [1] is not above 2000 nM and the IC50 under setting [2] was less than 2000 nM.

For `Cc1c(C(O)c2ccsc2)sc2c(NN=Cc3cccnc3)ncnc12` (centres unmarked) [Compound 461, 3-Pyridinecarboxaldehyde(6-(1-hydroxy-1-[3-thienyl])methyl-7-methylthieno[3,2-d]pyrimidin-4-yl)hydrazone], the IC50 is, setting by setting: under setting [1], not above 2000 nM; under setting [2], less than 2000 nM.

For the compound `Cc1c(C(O)c2ccsc2)sc2c(NN=Cc3ccc(C(=O)O)cc3)ncnc12` (centres unmarked) [Compound 462, 4-Carboxybenzaldehyde(6-(1-hydroxy-1-[3-thienyl])methyl-7-methylthieno[3,2-d]pyrimidin-4-yl)hydrazone], the IC50 by setting is: under setting [1], not above 2000 nM; under setting [2], less than 2000 nM.

`Cc1c(C(O)c2ccsc2)sc2c(NN=Cc3cccs3)ncnc12` (centres unmarked) [Compound 463, 2-Thiophenecarboxaldehyde(6-(1-hydroxy-1-[3-thienyl])methyl-7-methylthieno[3,2-d]pyrimidin-4-yl)hydrazone]: the IC50 reads like this: under setting [1], not above 2000 nM; under setting [2], less than 2000 nM.

In the case of `COc1ccc(C=NNc2ncnc3c(C)c(C(O)c4ccsc4)sc23)cc1O` (centres unmarked) [Compound 464, 3-Hydroxy-4-methoxybenzaldehyde(6-(1-hydroxy-1-[3-thienyl])methyl-7-methylthieno[3,2-d]pyrimidin-4-yl)hydrazone], the IC50 reads like this: under setting [1], not above 2000 nM; under setting [2], less than 2000 nM.

On to `Cc1c(C(=O)O)sc2c(NN=Cc3cccnc3)ncnc12` [Compound 465, 3-Pyridinecarboxaldehyde(6-carboxy-7-methylthieno[3,2-d]pyrimidin-4-yl)hydrazone], for which the IC50 is, setting by setting: under setting [1], not above 2000 nM; under setting [2], less than 2000 nM.

Turning to `Cc1c(C(=O)O)sc2c(NN=Cc3ccc(C(=O)O)cc3)ncnc12` [Compound 466, 4-Carboxybenzaldehyde(6-carboxy-7-methylthieno[3,2-d]pyrimidin-4-yl)hydrazone], the IC50 was not above 2000 nM under setting [1] and less than 2000 nM under setting [2].

For the compound `Cc1c(C(=O)O)sc2c(NN=Cc3cccs3)ncnc12` [Compound 467, 2-Thiophenecarboxaldehyde(6-carboxy-7-methylthieno[3,2-d]pyrimidin-4-yl)hydrazone], under setting [2], the IC50 is less than 2000 nM.

As to `COc1ccc(C=NNc2ncnc3c(C)c(C(=O)O)sc23)cc1O` [Compound 468, 3-Hydroxy-4-methoxybenzaldehyde(6-carboxy-7-methylthieno[3,2-d]pyrimidin-4-yl)hydrazone], the half-maximal inhibitory concentration (IC50) is not above 2000 nM under setting [1] and less than 2000 nM under setting [2].

As to `Cc1c(C(O)C2CCCCC2)sc2c(NN=Cc3cccnc3)ncnc12` (centres unmarked) [Compound 469, 3-Pyridinecarboxaldehyde(6-(1-cyclohexyl-1-hydroxy)methyl-7-methylthieno[3,2-d]pyrimidin-4-yl)hydrazone], the concentration for half-maximal inhibition (IC50) under setting [1] is not above 2000 nM and the IC50 under setting [2] was less than 2000 nM.

On to `Cc1c(C(O)C2CCCCC2)sc2c(NN=Cc3ccc(C(=O)O)cc3)ncnc12` (centres unmarked) [Compound 470, 4-Carboxybenzaldehyde(6-(1-cyclohexyl-1-hydroxy)methyl-7-methylthieno[3,2-d]pyrimidin-4-yl)hydrazone], for which the IC50 reads like this: under setting [1], not above 2000 nM; under setting [2], less than 2000 nM.

`Cc1c(C(O)C2CCCCC2)sc2c(NN=Cc3cccs3)ncnc12` (centres unmarked) [Compound 471, 2-Thiophenecarboxaldehyde(6-(1-cyclohexyl-1-hydroxy)methyl-7-methylthieno[3,2-d]pyrimidin-4-yl)hydrazone]: the IC50 is not above 2000 nM under setting [1] and less than 2000 nM under setting [2].

As for `COc1ccc(C=NNc2ncnc3c(C)c(C(O)C4CCCCC4)sc23)cc1O` (centres unmarked) [Compound 472, 3-Hydroxy-4-methoxybenzaldehyde(6-(1-cyclohexyl-1-hydroxy)methyl-7-methylthieno[3,2-d]pyrimidin-4-yl)hydrazone], the concentration for half-maximal inhibition (IC50) under setting [1] was not above 2000 nM and the IC50 under setting [2] was less than 2000 nM.

Turning to `Cc1c(C(Cc2ccccc2)c2ccccc2)sc2c(NN=Cc3cccnc3)ncnc12` (centres unmarked) [Compound 473, 3-Pyridinecarboxaldehyde(6-(1-benzyl-1-phenyl)methyl-7-methylthieno[3,2-d]pyrimidin-4-yl)hydrazone], the IC50 under setting [1] is not above 2000 nM and the IC50 under setting [2] was less than 2000 nM.

Consider `Cc1c(C(Cc2ccccc2)c2ccccc2)sc2c(NN=Cc3cccs3)ncnc12` (centres unmarked) [Compound 474, 2-Thiophenecarboxaldehyde(6-(1-benzyl-1-phenyl)methyl-7-methylthieno[3,2-d]pyrimidin-4-yl)hydrazone], for which the IC50 is, setting by setting: under setting [1], not above 2000 nM; under setting [2], less than 2000 nM.

With `Cc1c(CO)sc2c(NN=Cc3cccnc3)ncnc12` [Compound 476, 3-Pyridinecarboxaldehyde(6-hydroxymethyl-7-methylthieno[3,2-d]pyrimidin-4-yl)hydrazone], the half-inhibitory concentration (IC50) is not above 2000 nM under setting [1] and less than 2000 nM under setting [2].

With `Cc1c(CO)sc2c(NN=Cc3ccc(C(=O)O)cc3)ncnc12` [Compound 477, 4-Carboxybenzaldehyde(6-hydroxymethyl-7-methylthieno[3,2-d]pyrimidin-4-yl)hydrazone], the IC50 by setting is: under setting [1], not above 2000 nM; under setting [2], less than 2000 nM.

In the case of `COc1ccc(C=NNc2ncnc3c(C)c(CO)sc23)cc1O` [Compound 478, 3-Hydroxy-4-methoxybenzaldehyde(6-hydroxymethyl-7-methylthieno[3,2-d]pyrimidin-4-yl)hydrazone], the IC50 is, setting by setting: under setting [1], not above 2000 nM; under setting [2], less than 2000 nM.
